# How the values were obtained:
# [1] = target: BRM (Homo sapiens, UniProt P51531); assay: ATPase catalytic activity of BRM (ADP-Glo in vitro biochemical assay); conditions: for BRM Max % Inhibition: Table 5
# [2] = target: BRG-1 (Homo sapiens, UniProt P51532); assay: ATPase catalytic activity of BRG-1 (ADP-Glo in vitro biochemical assay); conditions: for BRG1 Max % Inhibition: Table 5
# Sequence of BRG-1 (P51532 whole entry): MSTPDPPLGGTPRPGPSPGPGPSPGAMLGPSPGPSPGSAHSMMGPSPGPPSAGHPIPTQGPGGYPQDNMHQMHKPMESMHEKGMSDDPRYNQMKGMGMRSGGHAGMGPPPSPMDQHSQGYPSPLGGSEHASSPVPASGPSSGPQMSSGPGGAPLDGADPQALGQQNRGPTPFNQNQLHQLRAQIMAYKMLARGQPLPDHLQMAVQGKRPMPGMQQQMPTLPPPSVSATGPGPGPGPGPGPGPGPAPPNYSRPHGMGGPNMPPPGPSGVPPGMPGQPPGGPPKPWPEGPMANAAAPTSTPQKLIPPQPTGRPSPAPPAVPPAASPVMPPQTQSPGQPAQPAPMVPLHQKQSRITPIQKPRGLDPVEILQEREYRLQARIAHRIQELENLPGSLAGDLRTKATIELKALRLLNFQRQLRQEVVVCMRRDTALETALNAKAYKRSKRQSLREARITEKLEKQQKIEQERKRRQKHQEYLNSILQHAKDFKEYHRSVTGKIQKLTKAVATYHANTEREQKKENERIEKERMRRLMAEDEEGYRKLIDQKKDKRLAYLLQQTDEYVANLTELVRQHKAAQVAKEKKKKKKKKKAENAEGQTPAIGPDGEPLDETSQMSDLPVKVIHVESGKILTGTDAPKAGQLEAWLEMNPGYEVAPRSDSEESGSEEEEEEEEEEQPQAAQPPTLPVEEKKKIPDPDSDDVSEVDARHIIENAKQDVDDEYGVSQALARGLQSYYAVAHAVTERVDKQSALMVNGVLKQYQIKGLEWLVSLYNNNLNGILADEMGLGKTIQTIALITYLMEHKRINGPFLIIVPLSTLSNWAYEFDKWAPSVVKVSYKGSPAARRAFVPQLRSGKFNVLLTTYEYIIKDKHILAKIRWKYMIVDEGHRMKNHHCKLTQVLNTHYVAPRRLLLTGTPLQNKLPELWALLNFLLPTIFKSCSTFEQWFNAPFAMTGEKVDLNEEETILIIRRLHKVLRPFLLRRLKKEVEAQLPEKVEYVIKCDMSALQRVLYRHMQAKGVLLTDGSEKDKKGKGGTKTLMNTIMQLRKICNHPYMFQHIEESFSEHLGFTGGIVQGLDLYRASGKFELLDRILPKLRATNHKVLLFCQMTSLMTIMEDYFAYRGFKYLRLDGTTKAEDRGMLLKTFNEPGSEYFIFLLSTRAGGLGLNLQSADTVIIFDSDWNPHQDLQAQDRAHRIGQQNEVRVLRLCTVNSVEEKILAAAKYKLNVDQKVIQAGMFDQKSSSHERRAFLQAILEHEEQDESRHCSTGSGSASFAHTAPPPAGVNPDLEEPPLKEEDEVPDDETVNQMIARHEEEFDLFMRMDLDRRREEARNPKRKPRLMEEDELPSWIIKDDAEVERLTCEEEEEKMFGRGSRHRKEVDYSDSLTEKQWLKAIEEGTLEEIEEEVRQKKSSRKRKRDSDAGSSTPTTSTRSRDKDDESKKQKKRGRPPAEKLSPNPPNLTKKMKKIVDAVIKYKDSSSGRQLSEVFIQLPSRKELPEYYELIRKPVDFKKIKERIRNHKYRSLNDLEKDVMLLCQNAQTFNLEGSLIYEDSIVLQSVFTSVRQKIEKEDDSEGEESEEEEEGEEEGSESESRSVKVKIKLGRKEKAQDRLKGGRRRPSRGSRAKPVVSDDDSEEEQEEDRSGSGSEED
# Sequence of BRM (P51531 whole entry): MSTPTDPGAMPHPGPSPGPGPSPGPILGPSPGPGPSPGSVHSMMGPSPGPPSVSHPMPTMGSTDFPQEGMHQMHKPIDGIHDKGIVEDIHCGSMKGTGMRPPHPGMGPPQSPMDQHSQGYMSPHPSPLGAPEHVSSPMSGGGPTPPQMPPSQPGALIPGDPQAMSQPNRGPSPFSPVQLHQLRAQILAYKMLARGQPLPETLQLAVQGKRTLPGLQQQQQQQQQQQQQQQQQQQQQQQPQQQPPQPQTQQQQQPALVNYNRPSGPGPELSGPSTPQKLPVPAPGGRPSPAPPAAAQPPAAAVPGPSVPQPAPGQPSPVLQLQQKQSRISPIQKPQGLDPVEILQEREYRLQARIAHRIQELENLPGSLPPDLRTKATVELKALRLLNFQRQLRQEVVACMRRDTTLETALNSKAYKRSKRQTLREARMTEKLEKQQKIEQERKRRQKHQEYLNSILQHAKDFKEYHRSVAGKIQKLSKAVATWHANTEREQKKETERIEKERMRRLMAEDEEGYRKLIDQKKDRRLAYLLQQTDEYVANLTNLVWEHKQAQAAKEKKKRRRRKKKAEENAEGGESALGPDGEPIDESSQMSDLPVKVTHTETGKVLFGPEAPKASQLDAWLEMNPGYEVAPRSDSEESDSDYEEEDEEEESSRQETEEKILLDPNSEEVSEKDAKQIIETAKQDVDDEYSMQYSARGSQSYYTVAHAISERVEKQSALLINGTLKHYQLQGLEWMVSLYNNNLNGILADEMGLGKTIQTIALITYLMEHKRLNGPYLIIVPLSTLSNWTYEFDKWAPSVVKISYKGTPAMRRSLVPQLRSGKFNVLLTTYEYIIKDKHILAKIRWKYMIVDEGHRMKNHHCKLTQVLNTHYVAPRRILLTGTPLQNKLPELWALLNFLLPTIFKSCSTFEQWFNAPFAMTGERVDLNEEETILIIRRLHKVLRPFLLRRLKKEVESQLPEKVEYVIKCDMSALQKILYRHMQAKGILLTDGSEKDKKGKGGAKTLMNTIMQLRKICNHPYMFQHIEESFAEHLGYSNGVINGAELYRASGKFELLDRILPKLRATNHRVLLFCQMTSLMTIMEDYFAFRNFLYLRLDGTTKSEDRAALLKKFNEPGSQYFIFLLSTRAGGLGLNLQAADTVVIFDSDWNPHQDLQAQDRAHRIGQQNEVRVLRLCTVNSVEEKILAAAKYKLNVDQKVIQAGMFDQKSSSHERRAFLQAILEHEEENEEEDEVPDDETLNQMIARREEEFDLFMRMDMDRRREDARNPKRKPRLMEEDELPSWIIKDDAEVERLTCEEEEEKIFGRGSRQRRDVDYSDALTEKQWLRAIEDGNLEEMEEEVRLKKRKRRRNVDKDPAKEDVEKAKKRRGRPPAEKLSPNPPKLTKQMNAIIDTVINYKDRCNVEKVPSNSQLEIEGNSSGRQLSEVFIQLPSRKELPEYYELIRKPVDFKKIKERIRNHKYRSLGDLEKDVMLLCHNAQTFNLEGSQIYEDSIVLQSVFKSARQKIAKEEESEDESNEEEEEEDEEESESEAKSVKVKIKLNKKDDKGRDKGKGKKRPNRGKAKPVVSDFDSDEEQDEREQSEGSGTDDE
IC50 [1] [µM],BRM Max % Inhibition [1] [%],IC50 [2] [µM],BRG1 Max % Inhibition [2] [%],SMILES
> 10,>70,> 10,>60,"COc1ccc(C(=O)N[C@@H](CCSC)C(=O)Nc2nc(-c3ccccc3)cs2)cc1S(C)(=O)=O [Compound 20, 4-methoxy-N-[(1S)-3-methylsulfanyl-1-[(4-phenylthiazol-2-yl)carbamoyl]propyl]-3-methylsulfonyl-benzamide]"
> 10,>70,> 10,>60,"CC(=O)NC[C@H](NC(=O)c1cccc(S(=O)(=O)N(C)C)c1)C(=O)Nc1nc(-c2ccccc2)cs1 [Compound 21, (S)—N-(3-acetamido-1-oxo-1-((4-phenylthiazol-2-yl)amino)propan-2-yl)-3-(N,N-dimethylsulfamoyl)benzamide]"
1 to 10,>70,1 to 10,>50,"CS(=O)(=O)c1cccc(C(=O)NCC(=O)Nc2nc(-c3ccccc3)cs2)c1 [Compound 23, 3-methylsulfonyl-N-[2-oxo-2-[(4-phenylthiazol-2-yl)amino]ethyl]benzamide]"
1 to 10,>70,–,>99,"CSCC[C@H](NC(=O)c1cccc(S(=O)(=O)N(C)C)c1)C(=O)Nc1nc(-c2ccccc2)cs1 [Compound 24, (S)-3-(N,N-dimethylsulfamoyl)-N-(4-(methylthio)-1-oxo-1-((4-phenylthiazol-2-yl)amino)butan-2-yl)benzamide]"
> 10,>70,> 10,>50,"CN(C)S(=O)(=O)c1cccc(C(=O)N[C@@H](CN)C(=O)Nc2nc(-c3ccccc3)cs2)c1 [Compound 25, (S)—N-(3-amino-1-oxo-1-((4-phenylthiazol-2-yl)amino)propan-2-yl)-3-(N,N-dimethylsulfamoyl)benzamide]"
> 10,>80,> 10,>80,"CSCC[C@H](NC(=O)c1ccc(NS(C)(=O)=O)cc1)C(=O)Nc1nc(-c2ccccc2)cs1 [Compound 38, 4-(methanesulfonamido)-N-[(1S)-3-methylsulfanyl-1-[(4-phenylthiazol-2-yl)carbamoyl]propyl]benzamide]"
1 to 10,–,1 to 10,–,"CSCC[C@H](NC(=O)c1ccc(O)cc1)C(=O)Nc1nc(-c2ccccc2)cs1 [Compound 53, 4-hydroxy-N-[(1S)-3-methylsulfanyl-1-[(4-phenylthiazol-2-yl)carbamoyl]propyl]benzamide]"
1 to 10,>90,1 to 10,>80,"CSCC[C@H](NC(=O)c1cccc(C(C)(C)O)c1)C(=O)Nc1nc(-c2ccccc2)cs1 [Compound 55, (S)-3-(2-hydroxypropan-2-yl)-N-(4-(methylthio)-1-oxo-1-((4-phenylthiazol-2-yl)amino)butan-2-yl)benzamide]"
> 10,>90,> 10,>90,"CSCC[C@H](NC(=O)c1ccc(CN)cc1)C(=O)Nc1nc(-c2ccccc2)cs1 [Compound 57, 4-(aminomethyl)-N-[3-methylsulfanyl-1-[(4-phenylthiazol-2-yl)carbamoyl]propyl]benzamide]"
> 10,>90,> 10,>90,"CSCC[C@H](NC(=O)c1cccc(O)c1)C(=O)Nc1nc(-c2ccccc2)cs1 [Compound 59, (S)-3-hydroxy-N-(4-(methylthio)-1-oxo-1-((4-phenylthiazol-2-yl)amino)butan-2-yl)benzamide]"

# Further lines, the molecule ahead of its results:
SMILES,IC50 [1] [µM],BRM Max % Inhibition [1] [%],IC50 [2] [µM],BRG1 Max % Inhibition [2] [%]
"CN(C)S(=O)(=O)c1cccc(C(=O)NCC(=O)Nc2nc(-c3ccccc3Br)cs2)c1 [Compound 18, N-[2-[[4-(2-bromophenyl)thiazol-2-yl]amino]-2-oxo-ethyl]-3-(dimethylsulfamoyl)benzamide]",> 10,>80,> 10,>60
"Cc1ccc(C(=O)NCC(=O)Nc2nc(-c3ccccc3)cs2)cc1S(C)(=O)=O [Compound 19, 4-methyl-3-(methylsulfonyl)-N-(2-oxo-2-((4-phenylthiazol-2-yl)amino)ethyl)benzamide]",< 1,>70,> 10,>30
"CN(C)S(=O)(=O)c1cccc(C(=O)NCC(=O)Nc2nc(-c3ccc(CN)cc3)cs2)c1 [Compound 22, N-[2-[[4-[4-(aminomethyl)phenyl]thiazol-2-yl]amino]-2-oxo-ethyl]-3-(dimethylsulfamoyl)benzamide]",> 10,>70,> 10,>60
"CNS(=O)(=O)c1cccc(C(=O)NCC(=O)Nc2nc(-c3ccccc3)cs2)c1 [Compound 26, 3-(methylsulfamoyl)-N-[2-oxo-2-[(4-phenylthiazol-2-yl)amino]ethyl]benzamide]",> 10,>60,> 10,<30
"CN(C)S(=O)(=O)c1cccc(C(=O)NCC(=O)Nc2nc(-c3ccccc3C#N)cs2)c1 [Compound 27, N-(2-((4-(2-cyanophenyl)thiazol-2-yl)amino)-2-oxoethyl)-3-(N,N-dimethylsulfamoyl)benzamide]",> 10,>60,> 10,>30
"NS(=O)(=O)c1cccc(C(=O)NCC(=O)Nc2nc(-c3ccccc3)cs2)c1 [Compound 28, N-(2-oxo-2-((4-phenylthiazol-2-yl)amino)ethyl)-3-sulfamoylbenzamide]",1 to 10,>50,1 to 10,>30
"Cc1cccc(C)c1-c1csc(NC(=O)CNC(=O)c2cccc(S(=O)(=O)N(C)C)c2)n1 [Compound 29, N-[2-[[4-(2,6-dimethylphenyl)thiazol-2-yl]amino]-2-oxo-ethyl]-3-(dimethylsulfamoyl)benzamide]",> 10,>50,> 10,>60
"Cc1ccc(-c2csc(NC(=O)CNC(=O)c3cccc(S(=O)(=O)N(C)C)c3)n2)cc1 [Compound 31, 3-(dimethylsulfamoyl)-N-[2-oxo-2-[[4-(p-tolyl)thiazol-2-yl]amino]ethyl]benzamide]",1 to 10,>30,1 to 10,<30
"CN(C)S(=O)(=O)c1cccc(C(=O)NCC(=O)Nc2nc(-c3ccccn3)cs2)c1 [Compound 32, 3-(dimethylsulfamoyl)-N-[2-oxo-2-[[4-(2-pyridyl)thiazol-2-yl]amino]ethyl]benzamide]",> 10,>30,> 10,<30
"CN(C)S(=O)(=O)c1cccc(C(=O)NCC(=O)Nc2nc(-c3cccc(C(=O)O)c3)cs2)c1 [Compound 33, 3-[2-[[2-[[3-(dimethylsulfamoyl)benzoyl]amino]acetyl]amino]thiazol-4-yl]benzoic acid]",> 10,>80,> 10,>80
"CN(C)S(=O)(=O)c1cccc(C(=O)NCC(=O)Nc2nc(C3CCCCC3)cs2)c1 [Compound 34, N-[2-[(4-cyclohexylthiazol-2-yl)amino]-2-oxo-ethyl]-3-(dimethylsulfamoyl)benzamide]",> 10,>90,> 10,>60
"CC(C)c1csc(NC(=O)CNC(=O)c2cccc(S(=O)(=O)N(C)C)c2)n1 [Compound 35, 3-(dimethylsulfamoyl)-N-[2-[(4-isopropylthiazol-2-yl)amino]-2-oxoethyl]benzamide]",> 10,>95,> 10,>90
"CS(=O)(=O)c1cccc(C(=O)NCC(=O)Nc2nc(-c3cccc(-c4ccccc4)c3)cs2)c1 [Compound 36, 3-methylsulfonyl-N-[2-oxo-2-[[4-(3-phenylphenyl)thiazol-2-yl]amino]ethyl]benzamide]",< 1,>95,1 to 10,>90
"CN(C)C(=O)c1cccc(-c2csc(NC(=O)CNC(=O)c3cccc(S(=O)(=O)N(C)C)c3)n2)c1 [Compound 37, 3-[2-[[2-[[3-(dimethylsulfamoyl)benzoyl]amino]acetyl]amino]thiazol-4-yl]-N,N-dimethyl-benzamide]",> 10,>50,> 10,>30
"O=C(CNC(=O)c1cccc(S(=O)(=O)C2CC2)c1)Nc1nc(-c2ccccc2)cs1 [Compound 39, 3-cyclopropylsulfonyl-N-[2-oxo-2-[(4-phenylthiazol-2-yl)amino]ethyl]benzamide]",> 10,>30,> 10,<30
"CN(C)S(=O)(=O)c1cccc(C(=O)NCC(=O)Nc2cccc(-c3ccccc3)c2)c1 [Compound 40, 3-(dimethylsulfamoyl)-N-[2-oxo-2-(3-phenylanilino)ethyl]benzamide]",–,>50,–,<30
"CC(C)CC[C@H](NC(=O)c1ccccc1)C(=O)Nc1nc(-c2ccccc2)cs1 [Compound 46, N-[(1S)-4-methyl-1-[(4-phenylthiazol-2-yl)carbamoyl]pentyl]benzamide]",1 to 10,–,1 to 10,–
"O=C(N[C@@H](CCc1ccccc1)C(=O)Nc1nc(-c2ccccc2)cs1)c1ccccc1 [Compound 49, N-[(1S)-3-phenyl-1-[(4-phenylthiazol-2-yl)carbamoyl]propyl]benzamide]",1 to 10,–,1 to 10,–
"CCC[C@H](NC(=O)c1ccccc1)C(=O)Nc1nc(-c2ccccc2)cs1 [Compound 51, N-[(1S)-1-[(4-phenylthiazol-2-yl)carbamoyl]butyl]benzamide]",1 to 10,–,> 10,–
